What was measured:
[1] = tested on: naive CD8 T cells isolated from the spleen of the C57BL/6 mice; experiment: Activation of naive CD8 T cells (anti-CD3, anti-CD28, IL2) in presence of DDA, flow cytometry; type: cell-based, mouse
Protocol: FIGS. 1A-E. Sorted naive CD4 T cells were isolated from the spleen of C57BL/6 mice and activated in the indicated Th1, Th2, Treg, or Th17 polarizing conditions as described in the “Materials and methods” section”. These cells were cultured in the presence of increasing concentrations of DDA. After 96 hours, the percentage of (A) Th1: CD4+Tbet+IFNg+, (B) Th2: CD4+GATA3+[…], (C) Treg: CD4+Foxp3+IL10+ and (D) Th17: CD4+RORgt+[…], cells was measured by flow cytometry. (E) Sorted naive CD8 T cells were isolated from the spleen of the C57BL/6 mice and activated with anti-CD3, anti-CD28 and recombinant IL2. After 96 hours, the percentage of cytotoxic T CD8+GranzymB+IFNg+ cells was measured by flow cytometry.
FIGS. 2A-E. Sorted naive CD4 T cells isolated from the spleen of C57BL/6 mice were activated in Th1, Th2, Treg, or Th17 polarizing conditions as indicated in the “Materials and methods” section”. After 96 h, increasing concentrations of DDA was added on polarized CD4 T cells for 24 h. Then the percentage of (A) CD4+Tbet+IFNg+, (B) CD4+GATA3+[…], (C) CD4+Foxp3+IL10+ and (D) CD4+RORgt+[…] cells was measured by flow cytometry. (E) Sorted naïve CD8 T cells were isolated from the spleen of the C57BL/6 mice and activated with anti-CD3, anti-CD28 and recombinant IL2. After 96 h, increasing concentrations of DDA was added on activated CD8 T cells for 24 h. Then the percentage of cytotoxic T CD8+GranzymB+IFNg+ cells was measured by flow cytometry.
Cells isolation. Single-cells leukocyte suspensions were obtained from spleens of C57BL/6 mice. Naive CD4 or CD8 T cells are isolated by depletion of memory CD4 or CD8 T cells and non-CD4 or non-CD8 T cells according the manufacturer's protocol from Miltenyi kit (Miltenyi biotec). […]
Immune cell culture. […] After 5 days of culture, cells were collected and analyzed by flow cytometry. To investigate the impact of DDA on polarization of CD4 or CD8 naive T cells, DDA or the solvent vehicle was added at the beginning of culture at Day 0 or at Day 4 and cells was analyzed at day 5 by flow cytometry.

[2] = tested on: naive CD4 T cells from the spleen of WT or LXRαβKO mice; experiment: Polarization of naive CD4 T cells from WT or LXRαβKO mice in presence of DDA; type: cell-based, mouse
Protocol: FIGS. 9A-B. Sorted naive CD4 T cells were isolated from the spleen of WT or LXRαβKO mice (collaboration with Hervé Guillou, INRA, Toulouse) and activated in the indicated Th1 or Treg polarizing conditions. These cells were cultured in the presence of increasing concentrations of DDA. After 96 hours, the percentage of (A) Th1: CD4+Tbet+IFNg+ and (B) Treg: CD4+Foxp3+IL10+ cells was measured by flow cytometry and expressed relative to the control.
FIG. 10. Sorted naive CD4 T cells were isolated from the spleen of WT or LXRαβKO mice and activated in Th2 polarizing conditions. These cells were cultured in the presence of increasing concentrations of DDA. After 96 hours, the percentage of Th2: CD4+GATA3+IL4+ cells was measured by flow cytometry and expressed relative to the control.

With `CC(C)CCCC(C)[C@H]1CCC2C3C[C@@H](NCCc4cnc[nH]4)[C@@]4(O)C[C@@H](O)CC[C@]4(C)C3CC[C@@]21C` (some centres unmarked) [DDA, 5a-hydroxy-6b-[2-(1H-imidazol-4-yl)ethylamino]cholestan-3b-ol] the “concentration from which differentiation of naïve CD8 T cells into functional cytotoxic CD8 T cells is increased” value ([1]; DDA added at day 0, 96 h, CD8+GranzymB+IFNg+) was ≥ 10 nM, the “concentration from which differentiation of naïve CD8 T cells into functional cytotoxic CD8 T cells is increased” value ([1]; DDA added at day 4 for 24 h) was ≥ 1 nM and the “CD8 T cells phenotype” value ([1]; data not shown) was “no significant effect”. The “DDA effect on Th1 differentiation” value ([2]; LXRαβKO mice) was “abrogated”, the “DDA effect on Treg differentiation” value ([2]; LXRαβKO mice) was “abrogated” and the “differentiation of Th0 into Th1” value ([2]; WT mice, Th1 polarizing conditions, 96 h (FIG. 9)) was “increases”. The “differentiation of Th0 into Treg” value ([2]; WT mice, Treg polarizing conditions, 96 h (FIG. 9)) was “decreases” and the Th2 differentiation ([2]; WT or LXRαβKO mice, Th2 polarizing conditions, 96 h (FIG. 10)) was “no impact”.

From patent US20230138400A1, “METHODS AND PHARMACEUTICAL COMPOSITIONS FOR REPROGRAMING IMMUNE ENVIRONMENT IN A SUBJECT IN NEED THEREOF” (INSERM (INSTITUT NATIONAL DE LA SANTE ET DE LA RECHERCHE …, priority 2016, published 2023)
